Laboratory results as given in patent US10785976B2, “Methods and compositions for environmentally friendly pest control” (BAYER CROPSCIENCE LP, priority 2016, dated 2020).
Counter-ions that a name gives are not always drawn.

Test system: Aedes aegypti
Assay: Direct spray treatment (pump-sprayer), knock down and/or mortality
Assay type: in vivo
Procedure: The efficacy of a non-VOC solvent formulation of the invention was evaluated using a pump-sprayer against Culex quinquefasciatus and Aedes aegypti. The non-VOC solvent formulation of the invention comprising acetyl tributyl citrate (Formulation 1) was applied at a concentration of either 15.75 mg/ml or 31.5 mg/ml from a distance of approximately 15 cm. Controls were sprayed with water. The experiment was replicated five times and ten insects were sprayed per replicate.
Percentage knock-down and/or mortality was determined at three time points: 30 minutes following treatment; 1 hour following treatment; and 24 hours following treatment. The findings are presented below in Tables 4 and 5.
Further studies were conducted using acetyl tributyl citrate as described in Table 6.

Measured: % knock down and/or mortality of Aedes aegypti (out of 10 per replicate) after direct spray treatment

CCCCOC(=O)CC(CC(=O)OCCCC)(OC(C)=O)C(=O)OCCCC [Citroflex A-4, acetyl tributyl citrate]
100%: Many spray pushes pure Citroflex A4 (1 ml), 1 hour | Many spray pushes pure Citroflex A4 (1 ml), 24 hour mortality | One spray push Citroflex 1:1 with tap water, 1 hour | One spray push Citroflex 1:1 with tap water, 24 hour mortality | One spray push pure Citroflex A4 (1 ml), 1 hour | One spray push pure Citroflex A4 (1 ml), 24 hour mortality
